Data taken from US8513276B2, “Imidazo[1,2-a]pyridine compounds for use in treating cancer” (Astex Therapeutics Limited, priority 2006, dated 2013).
pIC50: −log10 of the molar value. Where a name gives a salt, the structure may show the parent alone. Read-outs that look alike come from different tables or passages of the source.

Tests used:
FGFR3 = biological target: T1, FGFR3 (Homo sapiens, UniProt P22607); assay: FGFR3 in vitro kinase inhibitory activity assay (TRF); type: biochemical
T1 construct: Enzymes (from Upstate) were prepared at 2× final concentration in 1× kinase assay buffer; purchased Upstate
Experimental: Enzymes (from Upstate) were prepared at 2× final concentration in 1× kinase assay buffer (as described below). Enzymes were then incubated with test compounds, biotinylated Flt3 substrate (biotin—DNEYFYV) (Cell Signalling Technology Inc.) and ATP. The reaction was allowed to proceed for 3 hours (FGFR3) or 2.5 hrs (PDGFR-beta) at room temperature on a plate shaker at 900 rpm before being stopped with 20 μl of 35 mM EDTA, pH 8 (FGFR3) or 55 mM EDTA, pH 8 (PDGFR-beta). Twenty μl of 5× detection mix (50 mM HEPES pH 7.5, 0.1% BSA, 2 nM Eu-anti-pY (PY20) (PerkinElmer) 15 nM SA-XL665 (Cisbio) for FGFR3 and 50 mM HEPES, pH 7.5, 0.5 M KF, 0.1% BSA, 11.34 nM Eu-anti-pY (PT66) (PerkinEimer), 94 nM SA-XL665 (Cisbio) for PDGFR-beta) was then added to each well and the plate sealed and incubated at room temperature for one hour on a plate shaker at 900 rpm. The plate was then read on a Packard Fusion plate reader in TRF mode.
Kinase Assay buffers were:
A: 50 mM HEPES pH 7.5, 6 mM MnCl2, 1 mM DTT, 0.1% TritonX-100

LP-1 cell line = assay: Cell-based pERK ELISA in LP-1 multiple myeloma cells; details: Homo sapiens
Experimental: LP-1 or JIM-1 multiple myeloma cells were seeded in 96 well plates at 1×10^6 cells/ml in 200 μl per well in serum free media. HUVEC cells were seeded at 2.5×10^5 cells/ml and allowed to recover for 24 h prior to transfer to serum free media. Cells were incubated for 16 h at 37° C. prior to the addition of a test compound for 30 minutes. Test compounds were administered at a 0.1% final DMSO concentration. Following this 30 minute incubation a FGF-1/Heparin (FGF-1 at 100 ng/ml final and Heparin at 100 ug/ml) mixture or VEGF^165 ([…]) was added to each of the wells for a further 5 minutes. The media was removed and 50 ul ERK ELISA lysis buffer (R and D Systems DuoSet ELISA for pERK and Total ERK #DYC-1940E, DYC-1018E) added. ELISA plates and standards were prepared according to the standard DuoSet protocols and the relative amounts of pERK to total ERK in each sample calculated according to the standard curve.
In particular, compounds of the invention were tested against the LP-1 cell line (DSMZ no.: ACC 41) derived from human multiple myeloma.

[1] = given as a bound, read-out: IC50 in the FGFR3 assay
[2] = LP-1 cell line, given as a bound, read-out: IC50 in LP-1 pERK ELISA
[3] = in vitro kinase assay, 8 μM ATP, read-out: FGFR3 IC50
[4] = LP-1 cells, FGF-1/heparin stimulation, pERK relative to total ERK, read-out: LP-1 pERK ELISA

T1 sequence (P22607 23-806): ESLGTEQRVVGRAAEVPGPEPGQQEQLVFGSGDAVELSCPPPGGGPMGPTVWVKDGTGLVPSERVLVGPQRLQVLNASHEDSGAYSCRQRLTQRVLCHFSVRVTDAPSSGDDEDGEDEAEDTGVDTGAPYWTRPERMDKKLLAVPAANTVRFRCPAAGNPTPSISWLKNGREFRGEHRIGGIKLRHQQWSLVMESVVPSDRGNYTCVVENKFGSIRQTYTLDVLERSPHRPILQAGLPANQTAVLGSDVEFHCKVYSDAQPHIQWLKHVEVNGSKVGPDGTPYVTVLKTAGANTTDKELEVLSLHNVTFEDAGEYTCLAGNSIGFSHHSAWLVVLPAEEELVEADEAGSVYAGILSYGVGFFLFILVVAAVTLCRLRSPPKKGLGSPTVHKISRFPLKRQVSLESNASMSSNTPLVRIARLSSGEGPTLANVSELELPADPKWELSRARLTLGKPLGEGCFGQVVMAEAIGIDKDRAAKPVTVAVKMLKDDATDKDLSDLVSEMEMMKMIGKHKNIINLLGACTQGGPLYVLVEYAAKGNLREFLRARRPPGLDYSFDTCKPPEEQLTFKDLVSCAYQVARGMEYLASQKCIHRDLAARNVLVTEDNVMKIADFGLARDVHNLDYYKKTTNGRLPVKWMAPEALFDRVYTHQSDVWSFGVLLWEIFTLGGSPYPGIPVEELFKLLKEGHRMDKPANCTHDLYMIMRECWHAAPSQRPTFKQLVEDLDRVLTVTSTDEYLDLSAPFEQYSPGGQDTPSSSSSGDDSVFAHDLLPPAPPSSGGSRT

Structure (SMILES) | pIC50 (FGFR3; [1]) | pIC50 (LP-1 cell line; [2]) | pIC50 (FGFR3; [3]) | pIC50 (LP-1 cell line; [4])
Fc1ccc(-c2ccn3c(-c4cccc(Nc5cnccn5)c4)cnc3c2)cc1 [Example 1, {3-[7-(4-Fluoro-phenyl)-imidazo[1,2-a]pyridin-3-yl]-phenyl}-pyrazin-2-yl-amine] | > 6.00 |  |  | 
c1cc(CN2CCOCC2)cc(-c2ccn3c(-c4cccc(Nc5nncs5)c4)cnc3c2)c1 [Example 2] | > 6.00 | > 6.00 |  | 
Cc1nnc(Nc2cccc(-c3cnc4cc(-c5cccc(CN6CCOCC6)c5)ccn34)c2)s1 [Example 3] | > 6.00 | > 6.00 |  | 
CN1CCN(Cc2ccc(-c3ccn4c(-c5cccc(Nc6cnn[nH]6)c5)cnc4c3)cc2)CC1 [Example 4, (3-{7-[4-(4-Methyl-piperazin-1-ylmethyl)-phenyl]-imidazo[1,2-a]pyridin-3-yl}-phenyl)-(3H-[1,2,3]triazol-4-yl)-amine formate salt] | > 6.00 | > 6.00 |  | 
Fc1ccc(-c2ccn3c(-c4cccc(Nc5ccncc5)c4)cnc3c2)cc1 [Example 6, {3-[7-(4-Fluoro-phenyl)-imidazo[1,2-a]pyridin-3-yl]-phenyl}-pyridin-4-yl-amine formate salt] | > 6.00 |  |  | 
Fc1ccc(-c2ccn3c(-c4cccc(Nc5nncs5)c4)cnc3c2)cc1 [Example 7, {3-[7-(4-Fluoro-phenyl)-imidazo[1,2-a]pyridin-3-yl]-phenyl}-[1,3,4]thiadiazol-2-yl-amine] | > 6.00 | > 6.00 | 8.66 | 7.16
c1ccc(Nc2cccc(-c3cnc4cc(-c5cccc(CN6CCOCC6)c5)ccn34)c2)cc1 [Example 8, {3-[7-(3-Morpholin-4-ylmethyl-phenyl)-imidazo[1,2-a]pyridin-3-yl]-phenyl}-phenyl-amine] | > 6.00 |  |  | 
CN1CCN(Cc2cccc(-c3ccn4c(-c5cccc(Nc6nncs6)c5)cnc4c3)c2)CC1 [Example 9, (3-{7-[3-(4-Methyl-piperazin-1-ylmethyl)-phenyl]-imidzao[1,2-a]pyridin-3-yl}-phenyl)-[1,3,4]thiadiazol-2-yl-amine formate salt] | > 6.00 | > 6.00 |  | 
Fc1ccc(-c2cnc3c(-c4cccc(Nc5nncs5)c4)cnn3c2)cc1 [Example 10, {3-[6-(4-Fluoro-phenyl)-pyrazolo[1,5-a]pyrimidin-3-yl]-phenyl}-[1,3,4]thiadiazol-2-yl-amine] | > 6.00 | > 6.00 | 8.32 | 7.41
Nc1ccc(-c2cnc3c(-c4cccc(Nc5nncs5)c4)cnn3c2)cn1 [Example 11, 5-{3-[3-([1,3,4]Thiadiazol-2-ylamino)-phenyl]-pyrazolo[1,5-a]pyrimidin-6-yl}-pyridin-2-ylamine hydrochloride salt] | > 6.00 | > 6.00 | 8.22 | 7.40
Fc1ccc(-c2ccc3c(-c4cccc(Nc5nncs5)c4)cnn3c2)cc1 [Example 12, {3-[6-(4-Fluoro-phenyl)-pyrazolo[1,5-a]pyridin-3-yl]-phenyl}-[1,3,4]thiadiazol-2-yl-amine] | > 6.00 | > 6.00 |  | 
c1cc(Nc2nncs2)cc(-c2cnc3cc(N4CCOCC4)ccn23)c1 [Example 19, [3-(7-Morpholin-4-yl-imidazo[1,2-a]pyridin-3-yl)-phenyl]-[1,3,4]thiadiazol-2-yl-amine] | > 6.00 |  |  | 
CCS(=O)(=O)N1CCN(c2ccn3c(-c4cccc(Nc5nncs5)c4)cnc3c2)CC1 [Example 21, {3-[7-(4-Ethanesulfonyl-piperazin-1-yl)-imidazo[1,2-a]pyridin-3-yl]-phenyl}-[1,3,4]thiadiazol-2-yl-amine Hydrochloride] | > 6.00 |  |  | 
O=C(c1cccc(-c2ccn3c(-c4cccc(Nc5nncs5)c4)cnc3c2)c1)N1CCOCC1 [Example 22, Morpholin-4-yl-(3-{3-[3-([1,3,4]thiadiazol-2-ylamino)-phenyl]-imidazo[1,2-a]pyridin-7-yl}-phenyl)-methanone Hydrochloride] | > 6.00 |  |  | 
Fc1ccc(-c2ccc3c(c2)ncn3-c2cccc(Nc3nncs3)c2)cc1 [Example 23, {3-[5-(4-Fluoro-phenyl)-benzoimidazol-1-yl]-phenyl}-[1,3,4]thiadiazol-2-yl-amine] | > 6.00 |  |  | 
Nc1nc(Nc2cccc(-c3cnc4cc(-c5ccc(F)cc5)ccn34)c2)n[nH]1 [Example 27, N*3*-(3-[7-(4-Fluoro-phenyl)-imidazo[1,2-a]pyridin-3-yl]-phenyl}-1H-[1,2,4]triazole-3,5-diamine] | > 6.00 |  | 6.89 | 
Fc1ccc(-c2ccn3c(-c4cccc(Nc5nnco5)c4)cnc3c2)cc1 [Example 29, {3-[7-(4-Fluoro-phenyl)-imidazo[1,2-a]pyridin-3-yl]phenyl}-[1,3,4]oxadiazol-2-yl-amine] | > 6.00 |  | 7.96 | 
Fc1ccc(-c2cnc3c(-c4cc(Nc5nncs5)ccn4)cnn3c2)cc1 [Example 31, {2-[6-(4-Fluoro-phenyl)-pyrazolo[1,5-a]pyrimidin-3-yl]-pyridin-4-yl}-[1,3,4]thiadiazol-2-yl-amine] | > 6.00 |  | 6.46 | 
c1cc(Nc2nncs2)cc(-c2cnc3cc(-c4ccnc(OC5CCOCC5)c4)ccn23)c1 [Example 33] | > 6.00 |  |  | 
Cn1ccnc1Nc1cccc(-c2cnc3cc(-c4ccc(F)cc4)ccn23)c1 [Example 34, {3-[7-(4-Fluoro-phenyl)-imidazol[1,2-a]pyridin-3-yl]-phenyl}-(1-methyl-1H-imidazol-2-yl)-amine Hydrochloride] | > 6.00 |  | 6.32 | 
OCc1cccc(-c2ccn3c(-c4cccc(Nc5nncs5)c4)cnc3c2)c1 [Example 35, (3-{3-[3-([1,3,4]Thiadiazol-2-ylamino)-phenyl]-imidazo[1,2-a]pyridin-7-yl}-phenyl)-methanol] | > 6.00 |  |  | 
CCOC(=O)N1CCN(c2ccn3c(-c4cccc(Nc5nncs5)c4)cnc3c2)CC1 [Example 36, 4-{3-[3-([1,3,4]Thiadiazol-2-ylamino)-phenyl]-imidazo[1,2-a]pyridin-7-yl}-piperazine-1-carboxylic acid ethyl ester] | > 6.00 |  |  | 
Nc1ccc(-c2ccn3c(-c4cccc(Nc5nncs5)c4)cnc3c2)cn1 [Example 37, 5-{3-[3-([1,3,4]Thiadiazol-2-ylamino)-phenyl]-imidazo[1,2-a]pyridin-7-yl}-pyridin-2-ylamine Hydrochloride] | > 6.00 |  | 8.59 | 
CC(=O)N1CCN(c2ccn3c(-c4cccc(Nc5nncs5)c4)cnc3c2)CC1 [Example 38, 1-(4-{3-[3-([1,3,4]Thiadiazol-2-ylamino)-phenyl]-imidazo[1,2-a]pyridin-7-yl}-piperazin-1-yl)-ethanone] | > 6.00 |  |  | 
Fc1ccc(-c2ccn3c(-c4cccc(Nc5ncns5)c4)cnc3c2)cc1 [Example 39, {3-[7-(4-Fluoro-phenyl)-imidazo[1,2-a]pyridin-3-yl]phenyl}-[1,2,4]thiadiazol-5-yl-amine] | > 6.00 |  | 6.94 | 
CS(=O)(=O)NCc1cccc(-c2ccn3c(-c4cccc(Nc5nncs5)c4)cnc3c2)c1 [Example 40, N-(3-{3-[3-([1,3,4]Thiadiazol-2-ylamino)-phenyl]-imidazo[1,2-a]pyridin-7-yl}-benzyl)-methanesulfonamide] | > 6.00 |  |  | 
Cc1ccn2c(-c3cccc(Nc4nncs4)c3)cnc2c1 [Example 41, [3-(7-Methyl-imidazo[1,2-a]pyridin-3-yl)phenyl]-[1,3,4]thiadiazol-2-yl-amine Hydrochloride] | > 6.00 |  |  | 
Cn1cc(-c2ccn3c(-c4cccc(NCc5ccccc5)c4)cnc3c2)cn1 [Example 42, Benzyl-{3-[7-(1-methyl-1H-pyrazol-4-yl)-imidazo[1,2-a]pyridin-3-yl]phenyl}-amine] | > 6.00 |  |  | 
Clc1ccn2c(-c3cccc(NCc4ccccc4)c3)cnc2c1 [the product of Procedure F8, Benzyl-[3-(7-chloro-imidazo[1,2-a]pyridin-3-yl)-phenyl]-amine] | > 6.00 |  |  | 
Clc1ccn2c(-c3cccc(Nc4cnn[nH]4)c3)cnc2c1 [the product of Procedure G1, [3-(7-Chloro-imidazo[1,2-a]pyridin-3-yl)-phenyl]-(3H-[1,2,3]triazol-4-yl)-amine] | > 6.00 |  |  | 
